From PMC10341549, “Inhibitory Investigations of Acyl-CoA Derivatives against Human Lipoxygenase Isozymes” (International Journal of Molecular Sciences, 2023)

Legend:
Assay type in all cases: biochemical
h12-LOX = molecular target: T1, h12-LOX (Homo sapiens, UniProt P18054); experiment: IC50 determination against h12-LOX; settings: methyl esters; 10 μM AA, pH 8.00; read-out: IC50 h12-LOX (methyl ester unsaturated fatty acids)
T1 construct: His tag; made in house
T1 sequence (P18054 1-663): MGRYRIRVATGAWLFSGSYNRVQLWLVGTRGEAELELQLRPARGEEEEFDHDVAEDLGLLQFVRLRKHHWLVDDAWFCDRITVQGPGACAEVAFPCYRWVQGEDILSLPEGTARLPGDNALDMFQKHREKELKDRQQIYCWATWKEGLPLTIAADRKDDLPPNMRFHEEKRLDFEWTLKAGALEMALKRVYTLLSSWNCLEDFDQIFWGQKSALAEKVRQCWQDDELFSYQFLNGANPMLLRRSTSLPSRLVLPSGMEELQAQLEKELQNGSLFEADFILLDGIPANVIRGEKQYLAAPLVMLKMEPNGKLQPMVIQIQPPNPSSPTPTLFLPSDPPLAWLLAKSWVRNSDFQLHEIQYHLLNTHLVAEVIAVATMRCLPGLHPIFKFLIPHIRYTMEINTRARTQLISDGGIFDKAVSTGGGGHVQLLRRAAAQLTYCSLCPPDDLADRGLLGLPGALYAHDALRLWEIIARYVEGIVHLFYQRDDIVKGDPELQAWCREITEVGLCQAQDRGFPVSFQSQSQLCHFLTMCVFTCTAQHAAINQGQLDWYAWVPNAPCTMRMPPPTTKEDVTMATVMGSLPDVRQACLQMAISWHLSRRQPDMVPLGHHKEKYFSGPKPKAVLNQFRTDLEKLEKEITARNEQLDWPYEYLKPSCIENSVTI
Procedure: (§1) Overexpression and purification of his-tagged wild-type h12-LOX (Uniprot entry P18054), h15-LOX-1 (Uniprot entry P16050), and h15-LOX-2 (Uniprot entry O15296) were performed using nickel-affinity chromatography. The purity of h12-LOX, h15-LOX-1, and h15-LOX-2 was assessed using SDS gel as greater than 85%, and metal content was assessed with a Finnigan inductively coupled plasma mass spectrometer (ICP-MS, Thermo Fischer Scientific, San Jose, USA) via comparison with iron standard solution. Cobalt-EDTA was used as an internal standard. WT h5-LOX (UniProt entry P09917) was expressed in Rosetta 2 cells (Novagen) transformed with the pET14b-Stable-5-LOX plasmid (a gift from Marcia Newcomer of Louisiana State University) and grown in Terrific Broth containing 34 μg/mL chloramphenicol and 100 μg/mL ampicillin at 37 °C for 3.5 h, then placed at 20 °C for an additional 26 h. Cells were pelleted and resuspended in 50 mM Tris (pH 8.0), 500 mM NaCl, 20 mM imidazole with 1 μM pepstatin, 100 μM PMSF, and DNaseI (Sigma, Kanagawa, Japan). The cells were lysed in a French pressure cell and centrifuged at 40,000× g for 20 min at 4 °C. Saturated ammonium sulfate was added to achieve a final solution of 10% and inverted several times. The lysate was centrifuged at 40,000× g for 10 min at 4 °C. The pellet was discarded, and the supernatant was increased to a final concentration of 50% ammonium sulfate. The supernatant was rotated for 10 min at 4 °C then centrifuged at 40,000× g for 10 min at 4 °C. The pellet was split into 150 mg aliquots. The WT h5-LOX used for the kinetics in this work was not purified due to a dramatic loss in activity and was therefore prepared as an ammonium-sulfate precipitate.
IC50 values for each acyl-CoA were measured against h5-LOX, h12-LOX, h15-LOX-1, and h15-LOX-2. […] The fastest rates over 15 s intervals were recorded. […]

h15-LOX-1 [1] = molecular target: T2, h15-LOX-1 (Homo sapiens, UniProt P16050); experiment: IC50 determination against h15-LOX-1; settings: 10 μM AA, 25 mM HEPES pH 7.5, 0.01% Triton X-100, 22 °C
T2 construct: His tag; made in house
T2 sequence (P16050 1-662): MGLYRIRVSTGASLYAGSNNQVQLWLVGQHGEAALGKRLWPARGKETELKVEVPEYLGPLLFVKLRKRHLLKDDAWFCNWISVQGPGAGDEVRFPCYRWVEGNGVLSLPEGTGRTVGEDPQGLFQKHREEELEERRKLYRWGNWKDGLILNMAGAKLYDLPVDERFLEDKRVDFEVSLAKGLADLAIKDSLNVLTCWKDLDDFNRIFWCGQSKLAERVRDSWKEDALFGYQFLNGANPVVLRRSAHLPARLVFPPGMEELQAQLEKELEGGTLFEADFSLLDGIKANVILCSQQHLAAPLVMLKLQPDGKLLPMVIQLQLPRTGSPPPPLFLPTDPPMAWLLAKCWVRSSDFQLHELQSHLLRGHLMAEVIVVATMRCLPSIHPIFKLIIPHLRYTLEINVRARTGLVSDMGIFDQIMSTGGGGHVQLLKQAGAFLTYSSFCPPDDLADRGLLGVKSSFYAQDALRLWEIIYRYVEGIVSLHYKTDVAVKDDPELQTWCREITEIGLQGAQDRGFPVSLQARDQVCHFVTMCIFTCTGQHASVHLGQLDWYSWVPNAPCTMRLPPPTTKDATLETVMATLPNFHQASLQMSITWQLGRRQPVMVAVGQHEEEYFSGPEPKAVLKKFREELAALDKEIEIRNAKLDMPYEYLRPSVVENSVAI
Procedure: as §1
(§2) IC50 values for each acyl-CoA were measured against h5-LOX, h12-LOX, h15-LOX-1, and h15-LOX-2. The reactions were carried out in 25 mM HEPES buffer (pH 8.00), 0.01% Triton X-100, and 10 μM AA for h12-LOX; 25 mM HEPES buffer (pH 7.5), 0.01% Triton X-100, and 10 μM AA for h15-LOX-1 and h15-LOX-2; and 50 mM HEPES buffer (pH 7.5), 100 µM EDTA, 50 mM NaCl, 200 µM ATP, and 10 μM AA for h5-LOX. IC50 reactions were implemented with h15-LOX-1 (0.125 μM), h12-LOX (0.300 μM), h15-LOX-2 (0.5 μM), and h5-LOX (∼600 nM ammonium sulfate salt) at 22 °C in a 1 cm^2 quartz cuvette containing 2 mL of the according buffer and 10 μM AA for no longer than 2 min to avoid any cleavage of the acyl-coenzyme A. Inhibitor concentrations ranging from 50 μM to 0.01 μM were used. All reactions were conducted using a Cary-UV Vis spectrophotometer (Agilent, Santa Clara, CA, USA). The fastest rates over 15 s intervals were recorded. IC50 values were obtained by determining the percent of inhibition of the enzymatic rate at ten inhibitor concentrations and plotting the rate against the inhibitor concentration, followed by a hyperbolic saturation curve fit. The saturation curve fits were performed in duplicate or triplicate, depending on the quality of the data. […] Through HPLC monitoring, we were able to determine a lack of degradation of the fatty acyl-CoAs over the first hour.

h15-LOX-2 = molecular target: T3, h15-LOX-2 (Homo sapiens, UniProt O15296); experiment: IC50 determination against h15-LOX-2; settings: 10 μM AA, 25 mM HEPES pH 7.5, 0.01% Triton X-100, 22 °C
T3 construct: His tag; made in house
T3 sequence (O15296 1-676): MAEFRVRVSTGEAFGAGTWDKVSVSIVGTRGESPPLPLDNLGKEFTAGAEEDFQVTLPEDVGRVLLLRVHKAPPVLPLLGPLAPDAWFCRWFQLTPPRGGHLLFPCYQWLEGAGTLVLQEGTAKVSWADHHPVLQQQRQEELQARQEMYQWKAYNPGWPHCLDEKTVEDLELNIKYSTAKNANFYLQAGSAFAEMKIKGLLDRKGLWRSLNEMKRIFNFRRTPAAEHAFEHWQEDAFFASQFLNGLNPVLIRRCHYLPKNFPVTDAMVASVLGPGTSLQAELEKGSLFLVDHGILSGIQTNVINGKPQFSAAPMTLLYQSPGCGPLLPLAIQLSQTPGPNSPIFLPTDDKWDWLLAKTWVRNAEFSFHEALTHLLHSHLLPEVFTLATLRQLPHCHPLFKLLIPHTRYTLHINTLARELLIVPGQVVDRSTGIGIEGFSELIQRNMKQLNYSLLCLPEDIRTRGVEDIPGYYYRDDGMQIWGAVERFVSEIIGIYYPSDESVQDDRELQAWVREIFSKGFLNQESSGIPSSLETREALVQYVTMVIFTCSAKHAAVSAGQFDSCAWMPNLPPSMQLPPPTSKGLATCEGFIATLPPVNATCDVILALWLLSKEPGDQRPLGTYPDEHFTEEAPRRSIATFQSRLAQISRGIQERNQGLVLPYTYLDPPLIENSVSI
Procedure: as §1, §2

h15-LOX-1 [2] = molecular target: T2, h15-LOX-1; experiment: Substrate activity and kinetic parameters with h15-LOX-1; settings: acyl-CoAs tested at 70 µM; change in absorbance at 234 nm
Procedure: Considering that some of these acyl-CoAs could potentially be substrates for LOX isozymes, each acyl-CoA was tested at 70 µM against each LOX isozyme to establish the possibility of catalysis.
The same buffer as used to determine IC50 values for h5-LOX was used for product determination. Turnover was monitored by absorbance at 234 nm.

| IC50 (h12-LOX) | IC50 (h15-LOX-1 [1]) | IC50 (h15-LOX-2) | SMILES | Substrate activity with h15-LOX-1 (h15-LOX-1 [2]) |
| --- | --- | --- | --- | --- |
| > 200 µM | > 200 µM | > 200 µM | CC/C=C\C/C=C\C/C=C\CCCCCCCCCCCC(=O)OC [methyl 13(Z),16(Z),19(Z)-docosatrienoate, methyl-13(Z),16(Z),19(Z)-docosatrienoate (22:3)] |  |
| > 200 µM | > 200 µM | > 200 µM | CC/C=C\C/C=C\C/C=C\CC/C=C\CCCCCCCC(=O)OC [methyl docosatetraenoate, methyl-9(Z),13(Z),16(Z),19(Z)-docosatetraenoate (22:4)] |  |
|  |  |  | CCCCC/C=C\C/C=C\C/C=C\C/C=C\CCCC(=O)OC [methyl ester arachidonic acid] | substrates |
| > 200 µM | > 200 µM | > 200 µM | CCCCC/C=C\C/C=C\CCCCCCCCCCCC(=O)OC [methyl-13Z,16Z-docosadienoic, methyl-13Z,16Z-docosadienoic (22:2)] |  |
